Test results: US7214495B2, “Screening method” (Takeda Pharmaceutical Company Limited, priority 2002, dated 2007)

What was measured:
human-derived GPR40 = biological target: T1, human-derived GPR40 (Homo sapiens, UniProt O14842); assay: Intracellular calcium change (FLIPR) in CHO-K1 cells transiently expressing GPR40; assay type: cell-based; details: added in 10^−5 M to 10^−6 M; no response in vector-only control cells
T1 construct: The DNA fragment encoding human GPR40 was acquired by the following PCR procedures; expressed in transfected cells; host or cells: CHO-K1 (transient, Lipofectamine)
T1 sequence (O14842 whole entry, the tested form may be a part): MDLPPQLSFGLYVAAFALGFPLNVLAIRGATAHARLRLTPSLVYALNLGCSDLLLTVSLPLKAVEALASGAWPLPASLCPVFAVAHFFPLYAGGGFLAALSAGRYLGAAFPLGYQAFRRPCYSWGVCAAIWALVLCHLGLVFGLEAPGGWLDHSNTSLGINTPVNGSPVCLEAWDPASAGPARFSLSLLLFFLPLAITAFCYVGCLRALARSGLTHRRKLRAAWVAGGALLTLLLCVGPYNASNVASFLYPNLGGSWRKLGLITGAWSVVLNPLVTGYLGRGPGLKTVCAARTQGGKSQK
Method: The CHO-K1 cell line was cultured in HAM F-12 medium (Invitrogen) containing 10% fetal calf serum (Invitrogen), unless otherwise indicated. One day before transfection, 4.5×10^5 cells per 10 cm^2 were plated, followed by incubation in a CO2 incubator adjusted to a concentration of 5% CO2 at 37° C. for at least 15 hours. Using Lipofectamine reagent (Invitrogen), transfection procedures were carried out by modifications of the method attached to the reagent. When a 6-well plate was used for the incubator, the following procedures were performed. First, 2 tubes each having a 1.5 ml volume were prepared and 100 μl each of Opti-MEM-I medium (Invitrogen) was dispensed in each tube. Next, 1 μg of the expression vector was charged in one tube and in another tube, 6 μl of Lipofectamine reagent was charged, which were mixed together. The mixture was settled for 20 minutes at room temperature. To the solution, 800 μl of Opti-MEM-I medium was added and the resulting solution mixture for transfection was added to CHO-K1 cells, which had been previously washed with Opti-MEM-I medium. Then, the cells were incubated in a CO2 incubator for 6 hours. After the incubation, the cells were rinsed with PBS (Invitrogen), then scraped using 0.05% trypsin-EDTA solution (Invitrogen) and recovered by centrifugal operation. The cells obtained were counted and diluted to 5×10^4 cells per 200 μl of the medium. The dilution was dispensed onto a Black walled 96-well plate (Costar) in 200 μl each per well, followed by incubation overnight in a CO2 incubator. Various test samples were added to the CHO-K1 cells in which the receptor was transiently expressed by the transfection operation described above, whereby changes in the intracellular calcium ion level were determined using FLIPR (Molecular Device). In order to determine the changes in the intracellular calcium ion level on FLIPR, the cells were pre-treated by the following procedures. First, for the purpose of adding a fluorescent dye Fluo-3 AM (DOJIN) to the cells or washing the cells immediately before the FLIPR assay, an assay buffer was prepared. A solution obtained by adding 20 ml of 1M HEPES (pH 7.4) (DOJIN) to 1000 ml of HBSS (Invitrogen) was prepared (hereinafter HBSS/HEPES solution), to which 10 ml of a solution mixture obtained by dissolving 710 mg of Probenecid (Sigma) in 5 ml of 1N NaOH and further adding 5 ml of HBSS/HEPES solution was added. The resulting solution was used as the assay buffer. Next, 50 μg of Fluo-3AM was dissolved in 21 μl of DMSO (DOJIN) and an equal volume of 20% Pulronic acid (Molecular Probes) was added to and mixed with the solution. The mixture was then added to 10.6 ml of the assay buffer supplemented with 105 μl of fetal calf serum to prepare a fluorescent dye solution. The medium for the transfection-treated CHO-K1 cells was removed. Immediately thereafter, the fluorescent dye solution was dispensed in 100 μl each/well and the cells were incubated in a CO2 incubator for an hour so that the fluorescent dye was taken up into the cells. The cells after the incubation was washed with the assay buffer described above and set on FLIPR. A test sample added to the receptor-expressed CHO-K1 cells was prepared using the assay buffer and set on FLIPR at the same time. After various test samples were added thereto.
Following the pre-treatment above, changes in intracellular calcium level after addition of various test samples were measured on FLIPR.

[1] = test system: mouse pancreatic β cell line MIN6; assay: Insulin secretion from MIN6 in KRBH buffer (immunoassay); assay type: cell-based; details: for insulin secretion enhancing activity: 22 mM glucose KRBH, 90 minutes; for insulin secretion activity in BSA-containing buffer / insulin secretion enhancing activity in buffer containing Nifedipine / insulin secretion enhancing activity in PD98059-containing buffer / insulin secretion enhancing activity, glucose dependency: 10 μM fatty acid; for insulin secretion activity in BSA-containing buffer: 0.1% fatty acid-free BSA; for insulin secretion enhancing activity in buffer containing Nifedipine: Nifedipine 10 μM; for insulin secretion enhancing activity in PD98059-containing buffer: PD98059 50 μM; for insulin secretion enhancing activity, glucose dependency: high glucose level conditions of at least 11 mM (0, 5.5, 11, 22 mM tested); for insulin secretion enhancing activity in buffer without Ca^2+ ions: 10 μM, no Ca^2+ ions, 0.1 mM EGTA, 22 mM glucose; for insulin secretion enhancing activity in m40i103-introduced MIN6: GPR40-specific siRNA m40i103 introduced; for insulin secretion enhancing activity in MIN6 introduced with Scramble II duplex siRNA: random siRNA control
Method: The mouse pancreatic β cell line MIN6 incubated in a flask was scraped in PBS containing 2.5 mM EDTA and plated in a 96-well plate followed by incubation for 2 days. The medium used was the same as in EXAMPLE 24, namely, 4.5 g/l of glucose-containing Dulbecco's Modified Eagle Medium (DMEM, Invitrogen, Inc.) supplemented with 15% fetal calf serum (ThermoTrace, Inc.), 5.5 μM 2-mercaptethanol (Invitrogen, Inc.), 20 mM HEPES pH 7.3, 100 U/ml penicillin and 100 μg/ml streptomycin. The cells were washed twice with modified Krebs-Ringer bicarbonate buffer (KRBH, 116 mM NaCl, 4.7 mM KCl, 1.2 mM KH2PO4, 1.2 mM MgSO4, 2.5 mM CaCl2, 25 mM NaHCO3, 24 mM HEPES, pH 7.3), followed by preincubation at 37° C. in 5% CO2 for 30 minutes. The fatty acid diluted/prepared using the aforesaid KRBH buffer added with 22 mM glucose was added to the cells after the preincubation, followed by incubation under the conditions of 37° C. in 5% CO2 for 90 minutes. After the incubation, the supernatant of the cells was recovered and stored in a frozen state. The insulin content in the supernatant was assayed using an insulin immunoassay kit commercially available (Amersham Pharmacia, Inc.).
Based on the method of EXAMPLE 25, effects of glucose level when added with fatty acids were examined. The level of glucose, which was added to KRBH upon the addition of fatty acids, was varied to 0, 5.5, 11 and 22 mM to study the effects.
The insulin secretion enhancing activity in the m40i103-introduced MIN6 cells using HVJ Envelope VECTOR KIT GenomONE based on the method of EXAMPLE 18 was examined. The insulin secretion enhancing activity by fatty acids was examined according to the method of EXAMPLE 25.
Based on the procedures of EXAMPLE 25, an essential prerequisite of Ca^2+ ions in the extracellular fluid was examined. In preincubation and incubation with a sample, Ca^2+ ions were removed and 0.1 mM EGTA, which was a reagent for chelating Ca^2+ ions, was further added, and then the insulin secretion enhancing activity by fatty acids was examined in this case.
Based on the method of EXAMPLE 25, effects of Ca^2+ channel blocker (Nifedipine) and MAP kinase inhibitor (PD98059) were examined. In preincubation and incubation with a sample, the insulin secretion enhancing activity by fatty acids was examined when Nifedipine (10 μM) or PD98059 (50 μM) was added.
It is known that fatty acids have the property of binding to albumin. Based on the method of EXAMPLE 25, effects were examined when bovine serum albumin (BSA) was present. In preincubation and incubation with a sample, the insulin secretion activity by fatty acids was examined when 0.1% BSA was added to the buffer.

Q: For `CCCCC/C=C\C/C=C\C/C=C\C/C=C\CCCC(=O)O` [Arachidonic acid (C20:4), Arachidonic acid], which “response (increase in intracellular calcium level) of GPR40-expressing CHO-K1 cells” value (human-derived GPR40) is on record?
A: specifically responsive

Q: And the “insulin secretion enhancing activity” value [1]?
A: significantly noted

Q: Which results are given for `CC/C=C\C/C=C\C/C=C\C/C=C\C/C=C\C/C=C\CCC(=O)O` [Docosahexaenoic acid (C22:6), 4Z,7Z,10Z,13Z,16Z,19Z-docosahexaenoic acid]?
A: response (increase in intracellular calcium level) of GPR40-expressing CHO-K1 cells (human-derived GPR40): specifically responsive; insulin secretion enhancing activity [1]: significantly noted

Q: Which “response (increase in intracellular calcium level) of GPR40-expressing CHO-K1 cells” value (human-derived GPR40) does the source give for `CCCCC/C=C\C/C=C\CCCCCCCC(=O)O` [Linoleic acid (C18:2), Linoleic acid] here?
A: specifically responsive

Q: And the “insulin secretion activity in BSA-containing buffer” value [1]?
A: almost suppressed

Q: And the “insulin secretion enhancing activity in buffer containing Nifedipine” value [1]?
A: not appreciated

Q: What about the “insulin secretion enhancing activity in PD98059-containing buffer” value [1] of the same molecule?
A: same results as in ordinary buffer

Q: What about the “insulin secretion enhancing activity, glucose dependency” value [1] of the same molecule?
A: remarkable

Q: What about the “insulin secretion enhancing activity in buffer without Ca^2+ ions” value [1] of the same molecule?
A: not observed

Q: What about the “insulin secretion enhancing activity” value [1] of the same molecule?
A: significantly noted

Q: What about the “insulin secretion enhancing activity in m40i103-introduced MIN6” value [1] of the same molecule?
A: no longer noted

Q: What about the “insulin secretion enhancing activity in MIN6 introduced with Scramble II duplex siRNA” value [1] of the same molecule?
A: retained

Q: `CCCCCCCC/C=C\CCCCCCCC(=O)O` [Oleic acid (C18:1), Oleic acid] was tested. Which “response (increase in intracellular calcium level) of GPR40-expressing CHO-K1 cells” value (human-derived GPR40) did it give?
A: specifically responsive

Q: And the “insulin secretion activity in BSA-containing buffer” value [1]?
A: almost suppressed

Q: And the “insulin secretion enhancing activity in buffer containing Nifedipine” value [1]?
A: not appreciated

Q: And the “insulin secretion enhancing activity in PD98059-containing buffer” value [1]?
A: same results as in ordinary buffer

Q: What about the “insulin secretion enhancing activity, glucose dependency” value [1] of the same molecule?
A: remarkable

Q: And the “insulin secretion enhancing activity in buffer without Ca^2+ ions” value [1]?
A: not observed

Q: And the “insulin secretion enhancing activity” value [1]?
A: significantly noted

Q: Which “insulin secretion enhancing activity in buffer without Ca^2+ ions” value [1] does the source give for `CCCCC/C=C\C/C=C\C/C=C\CCCCC(=O)O` [γ-Linolenic acid (C18:3), γ-Linolenic acid] here?
A: not observed

Q: What about the “insulin secretion enhancing activity” value [1] of the same molecule?
A: significantly noted

Q: What about the “insulin secretion enhancing activity in m40i103-introduced MIN6” value [1] of the same molecule?
A: no longer noted

Q: And the “insulin secretion enhancing activity in MIN6 introduced with Scramble II duplex siRNA” value [1]?
A: retained
